The values that follow come from US10407488B2, “Therapy for treatment or prevention of conditions associated with bleeding or hypocoagulation” (THE REGENTS OF THE UNIVERSITY OF CALIFORNIA, priority 2013, dated 2019).

The test system of assay [1] is thrombin generation in normal human plasma with rhAPC. The assay can be described thus: Thrombin generation in normal human plasma in the presence of rhAPC. Format: biochemical. As to the method: BU titer values for FVIII antibodies added to FVIII-deficient plasma were determined using a modified Nijmegen Bethesda assay (Barrow and Lollar; JTH 2006, 4:2223-2229). Briefly, antibody was serially diluted in HBS with 0.05% Tween 80 and mixed 1:1 with pooled normal plasma that was supplemented with 100 mM Imidazole, pH 7.0. Samples were incubated at 37° C. for 2 hours then assayed by aPTT with APTT XL reagent (Pacific Hemostasis). A standard curve was derived from a serial dilution of normal plasma into FVIII deficient plasma that was also mixed 1:1 with HBST and incubated at 37° C. for 2 hours. Percent FVIII activity was plotted versus mg/ml of antibody and residual activity of 50% was defined as 1 BU/ml. In addition, endogenous thrombin potential (ETP) assays were performed as described (3). Briefly FVa mutants or saline were added to human or murine plasma (George King Bio-Medical; mouse source, 50% v/v) supplemented with […] corn trypsin inhibitor (Haematologic Technologies), 10 mM CaCl2, 10 μM phospholipid vesicles (80% phosphatidylcholine, 20% phosphatidylserine, prepared as described (6), 0.2 pM soluble tissue factor (Innovin®, Dade Behring), and 0.4 mM Z-Gly-Gly-Arg-AMC (thrombin substrate, Bachem) in HBS. After mixing, 100 μL was transferred to a FluoroNunc microtiter plate at 37° C. to monitor fluorescence (excitation at 360 nm/emission at 460 nm; Gemini EM fluorescent plate reader (Molecular Devices)). Fluorescence time course data were converted to nM thrombin as described (7). ETP, defined as the area under the curve, was determined using Prism 5.04 (Graphpad).
APC-mediated inactivation of FVa was analyzed in ETP assays and aPTT clotting assays. FVa mutants were incubated with equal volumes of either recombinant human APC (Xigris®) or buffer in human and murine Balb/c plasma.

The test system of a further assay is Balb/c mice. The assay can be described thus: Tail clip bleeding assay, APC-induced bleeding in Balb/c mice. Format: in vivo, mouse. On the procedure:
(§1) Mice were anesthetized with Isoflurane 3%, placed on temperature controlled heating pads (37° C.), and the distal portion of the tail was cut at 1.5 mm diameter after which the tail was immersed in a predefined volume of 37° C. saline (0.9% NaCl) for 20 minutes. To study effects on bleeding and clot stability, tubes were changed after 10 minutes to collect blood for the first and second 10 minutes separately. Blood loss was determined by the hemoglobin concentration in the saline solution after red cell lysis with 2% acetic acid and measured by absorbance at 490 nm. Using a hemoglobin standard derived from defined blood volumes, blood loss was calculated assuming a hematocrit of 46% and expressed in μL/g body weight. Groups of Balb/c mice were injected intravenously (tail vein) with equal volumes (200 μL) of ^superFVa or saline 2 minutes prior to intravenous injection of rhAPC (Xigris®). Immediately after APC injection tail cut was performed. All agents were diluted in sterile sodium chloride 0.9% for injection (Hospira Inc).

The test system of the next assay is FVIII-deficient mice. As to the kind of experiment: Tail clip bleeding assay in FVIII-deficient mice. Format: in vivo, mouse. The settings on record: 20 minutes. On the procedure: as §1
(§2) Mice were anesthetized, placed on temperature controlled heating pads (37° C.), and the distal portion of the tail was cut at 1.5 mm diameter after which the tail was immersed in a predefined volume of 37° C. saline (0.9% NaCl) for 20 minutes. Blood loss was determined by the hemoglobin concentration in the saline solution after red cell lysis with 2% acetic acid and measured by absorbance at 405 nm. Using a hemoglobin standard derived from defined blood volumes, blood loss was calculated assuming a hematocrit of 46% and expressed in μL/g body weight. Groups of FVIII-deficient mice were injected intravenously (retro-orbital) within 2 minutes prior to tail cut with equal volumes ([…]) of sterile saline for injection (0.9%, Hospira Inc.), rhFVIII 200 units/kg FVIII (Xyntha®, Pfizer, NY, N.Y., USA) ^superFVa, rhFVIIa (NovoSeven®, NovoNordisk, Bagsvaerd, Denmark) or a combination of ^superFVa and rhFVIIa. All agents were diluted in sterile sodium chloride 0.9% for injection (Hospira Inc). […]

The subject of assay [2] is Balb/c mice treated with anti-FVIII antibodies. As to the kind of experiment: Tail clip bleeding assay in Balb/c mice treated with anti-FVIII antibodies. Format: in vivo, mouse. The following applies: 20 minutes. As to the method:
as §2
To further elucidate the efficiency of ^superFVa to reduce bleeding in presence of inhibitors for FVIII either alone or in combination with rhFVIIa, blood loss during a 20 minute bleeding period was determined in a tail transection model in Balb/c mice treated with anti-FVIII antibodies (0.25 mg/kg). […]

In assay [3] the test system is thrombin generation in normal human plasma. As to the kind of experiment: Thrombin generation in NHP in the presence of rivaroxaban or apixaban. The settings on record: factor alone: rhFVIIa 2 μg/ml, ^superFVa 400 nM; NOAC 200 nM. Format: biochemical. On the procedure:
Thrombin generation or Endogenous Thrombin Potential (ETP) assays were performed as described. Briefly, plasma samples supplemented with CTI, TF, PCPS were preincubated […] in the presence or absence of rivaroxaban, apixaban, Kcentra®, NovoSeven® or ^superFVa. Thrombin generation was initiated by addition of CaCl2 and Z-Gly-Gly-Arg-AMC in HBS/0.5% BSA. The final reaction mixture contained, 50% plasma, 0.725 μM CTI, 0.2 Pm TF, 4 μM PCPS vesicles, 0.5 mM Z-GGR-AMC, 7.6 mM CaCl2 in a total volume of 100 μl. Concentrations of rivaroxaban, apixaban, Kcentra®, NovoSeven® or ^superFVa are indicated in the result section and in the figure legends. Fluorescence was measured at excitation/emission wavelengths of […] using Gemini EM fluorescent plate reader (Molecular Devices). Fluorescence time course data were converted to Nm thrombin as described. ETP, defined as the area under the curve (AUC) and the peak height were determined using Origin software.

As to “^superFVa: engineered APC-resistant FVa variant (SEQ ID NO:4): R306Q, R506Q, R679Q, Cys609-Cys1691 disulfide, S2183A, B-domain deleted”, the “rescue of APC-induced reduction of thrombin generation” value in assay [1] (factor alone, rhAPC, normal human plasma (FIG. 16)) is “corrected thrombin generation to levels to those of normal human plasma”. The ETP restored in assay [1] (human plasma, ETP maximally suppressed by APC) was 90-100%. For the same substance, the “effect on thrombin generation suppressed by APC” value in assay [1] (human plasma, concentrations where ^superFVa restores) is “fully restored thrombin generation”. The mean blood loss in the assay with Balb/c mice (^superFVa 5 U/mL 2 minutes prior to APC 1.25 mg/kg, 20 minutes) came out at 21 µL/g; in the assay with Balb/c mice (^superFVa 25 U/mL 2 minutes prior to APC 1.25 mg/kg, 20 minutes), 9.2 µL/g; in the assay on Balb/c mice (^superFVa 25 U/mL + APC, first 10 minutes) it was 4.3 µL/g; in the assay on Balb/c mice (^superFVa 25 U/mL + APC, second 10 minutes), 4.8 µL/g; in the assay with Balb/c mice (^superFVa iv 3.5 mg/kg 2 min prior to wt APC 1.25 mg/kg) it was 9.2 µL/g; with FVIII-deficient mice (^superFVa 10 U/kg iv) it was 25.9 µL/g. In addition, the mean blood loss turned out to be 9.7 µL/g with FVIII-deficient mice (^superFVa 40 U/kg iv) and 2.5 µL/g with FVIII-deficient mice (^superFVa 200 U/kg iv). Moreover, the blood loss amounted to 19.47 µL/g in assay [2] (^superFVa 10 U/kg) and 9.97 µL/g in assay [2] (^superFVa 40 U/kg). Further, in assay [3], the “ability to enhance the ETP of NHP suppressed with rivaroxaban or apixaban” value is recorded as “nor ^superFVa at high concentration (400 nM) were able to enhance the ETP”.
